Results taken from patent publication US20220392580A1, “COMPUTATIONAL MODEL TRAINED TO PREDICT INTERACTING PAIRS BASED ON WEAKLY-CORRELATED FEATURES” (Cornell University, priority 2016, published 2022).
Counter-ions that a name gives are not always drawn.

Experiments:
breast cancer patients = settings: recent clinical trials; cited from earlier work
DRD2L [1] = biological target: T1, DRD2L (Homo sapiens, UniProt P14416); assay: antagonism of arrestin recruitment to DRD2L, Gaddam/Schild EC50 shift analysis; type: cell-based; design: expressed in transfected cells; settings: dopamine completely reverses dose-dependent antagonism of up to 100 uM ONC201
Protocol: (§1) To test the target prediction, in vitro profiling of GPCR activity using a hetereologous reporter assay for arrestin recruitment, a hallmark of GPCR activation was performed.

[2] = system: other drug targets of FDA-approved cancer therapies; assay: interaction profiling
[3] = system: nuclear hormone receptors; assay: interaction profiling
other GPCRs = assay: in vitro profiling of GPCR activity, heterologous reporter assay for arrestin recruitment; type: cell-based; settings: under the evaluated conditions
Protocol: as §1

DRD4 = DRD4 (Homo sapiens, UniProt P21917); settings: arrestin recruitment GPCR profiling; potency relative to DRD2 and DRD3
Protocol: as §1

[4] = system: D2-like (DRD2/3/4) subfamily of dopamine receptors; settings: arrestin recruitment GPCR profiling
Protocol: as §1

[5] = system: D1-like (DRD1/5) subfamily of dopamine receptors; settings: arrestin recruitment GPCR profiling
Protocol: as §1

[6] = system: short and long isoforms of DRD2; settings: arrestin recruitment GPCR profiling
Protocol: as §1

DRD2L [7] = biological target: T1, DRD2L; settings: another measure of DRD2L activation

T1 sequence (P14416 whole entry): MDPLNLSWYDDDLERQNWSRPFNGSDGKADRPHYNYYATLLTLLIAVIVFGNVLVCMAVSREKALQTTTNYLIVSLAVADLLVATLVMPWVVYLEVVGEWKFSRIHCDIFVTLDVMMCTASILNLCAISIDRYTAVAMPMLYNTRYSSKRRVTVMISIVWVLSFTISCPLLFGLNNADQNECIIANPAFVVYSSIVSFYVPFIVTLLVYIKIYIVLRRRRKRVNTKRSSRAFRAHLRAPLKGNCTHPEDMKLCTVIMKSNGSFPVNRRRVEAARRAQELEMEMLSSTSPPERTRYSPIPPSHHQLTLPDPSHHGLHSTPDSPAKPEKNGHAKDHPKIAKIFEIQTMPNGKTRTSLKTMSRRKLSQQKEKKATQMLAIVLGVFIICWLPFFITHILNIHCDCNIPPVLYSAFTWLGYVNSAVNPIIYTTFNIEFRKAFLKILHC
DRD4, sequence (P21917 whole entry): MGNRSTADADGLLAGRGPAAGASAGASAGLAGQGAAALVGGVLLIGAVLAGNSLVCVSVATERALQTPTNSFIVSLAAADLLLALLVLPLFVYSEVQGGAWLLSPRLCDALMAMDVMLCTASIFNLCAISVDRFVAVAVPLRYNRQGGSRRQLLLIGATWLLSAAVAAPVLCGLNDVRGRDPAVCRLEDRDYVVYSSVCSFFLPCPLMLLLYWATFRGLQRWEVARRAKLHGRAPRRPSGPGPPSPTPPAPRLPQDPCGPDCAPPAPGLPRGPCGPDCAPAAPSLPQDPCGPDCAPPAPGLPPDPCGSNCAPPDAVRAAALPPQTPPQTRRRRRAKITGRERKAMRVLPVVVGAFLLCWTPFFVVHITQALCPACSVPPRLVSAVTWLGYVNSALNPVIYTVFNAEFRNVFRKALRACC

SMILES	patients showing any detectable response after treatment (breast cancer patients) [%]	mode of antagonism of DRD2L (reversal by dopamine) (DRD2L [1])	interactions with the kinome (the kinome)	interactions with other drug targets of FDA-approved cancer therapies [2]	interactions with nuclear hormone receptors [3]	antagonism of other GPCRs (other GPCRs)	antagonism of DRD4 (DRD4)	antagonism of D2-like dopamine receptors [4]	antagonism of D1-like dopamine receptors [5]	antagonism of DRD2 short and long isoforms [6]	cAMP modulation in response to compound (DRD2L [7])
C=C1C[C@@H]2CC[C@@]34C[C@H]5O[C@H]6[C@@H](O3)[C@H]3O[C@H](CC[C@@H]3O[C@H]6[C@H]5O4)CC(=O)C[C@@H]3[C@@H](OC)[C@@H](C[C@H](O)CN)O[C@H]3C[C@H]3O[C@@H](CC[C@@H]1O2)C[C@@H](C)C3=C [Eribulin, Eribulin mesylate]	< 50	–	–	–	–	–	–	–	–	–	–
Cc1ccccc1CN1C(=O)C2=C(CCN(Cc3ccccc3)C2)N2CCN=C12 [ONC201]	–	direct, competitive antagonism	no significant interactions	no significant interactions	no significant interactions	no observed antagonism	weaker potency	selectively antagonizes	but not D1-like (DRD1/5)	antagonized	Confirmatory results
